# Data published in ChEMBL document CHEMBL3286227, “Guanidinium-based derivatives: searching for new kinase inhibitors” (Eur J Med Chem, 2014).
# pIC50: −log10 of the molar value. The source made the active and inactive calls. The rule behind the calls is not given here.
# Experiments:
# [1] = target: Casein kinase I isoform delta (Homo sapiens, UniProt P48730); test: Inhibition of human recombinant casein kinase-1 delta using casein as substrate after 60 mins by kinase-glo luminescence assay
# [2] = target: Glycogen synthase kinase-3 beta (Homo sapiens, UniProt P49841); test: Inhibition of human recombinant GSK-3 beta after 30 mins by luminescence assay
# [3] = target: Serine/threonine-protein kinase B-raf (Homo sapiens) (UniProt P15056); test: Competitive binding to B-RAF kinase (unknown origin) at 100 nM to 100 uM after 60 to 120 mins by FRET analysis
# [4] = target: Mitogen-activated protein kinase; ERK1/ERK2 (Homo sapiens) (UniProt P27361+P28482); test: Inhibition of ERK1/2 kinase in human A431 cells using EGF as substrate at 10 uM incubated for 5 mins prior to substrate addition measured after 10 mins by fluorescence assay relative to control; format: cell-based; conditions: A-431
# [5] = target: MAP kinase p38 (Homo sapiens) (UniProt O15264+Q15759+Q16539+P53778); test: Inhibition of P38 MAP kinase in human A431 cells using TNF-alpha as substrate at 10 uM incubated for 5 mins prior to substrate addition measured after 10 mins by fluorescence assay relative to control; format: cell-based; conditions: A-431
# HUVEC = test: Inhibition of VEGFR in HUVEC using […] as substrate at 10 uM incubated for 20 mins prior to substrate addition relative to control; format: cell-based; conditions: Homo sapiens
# [6] = target: Serine/threonine-protein kinase RAF and Dual specificity mitogen-activated protein kinase kinase 1 (Raf/MEK) (Homo sapiens) (UniProt P04049+Q02750); test: Inhibition of RAF-1/MEK1 (unknown origin) assessed as at 10 uM after 5 mins by fluorescence assay relative to control; format: protein assay
# HL-60 = test: Cytotoxicity against human HL60 cells after 72 hrs by Alamar Blue assay; format: functional, cell-based; conditions: HL-60, 72 h
# Sequence of Serine/threonine-protein kinase B-raf (Homo sapiens) (P15056 whole entry): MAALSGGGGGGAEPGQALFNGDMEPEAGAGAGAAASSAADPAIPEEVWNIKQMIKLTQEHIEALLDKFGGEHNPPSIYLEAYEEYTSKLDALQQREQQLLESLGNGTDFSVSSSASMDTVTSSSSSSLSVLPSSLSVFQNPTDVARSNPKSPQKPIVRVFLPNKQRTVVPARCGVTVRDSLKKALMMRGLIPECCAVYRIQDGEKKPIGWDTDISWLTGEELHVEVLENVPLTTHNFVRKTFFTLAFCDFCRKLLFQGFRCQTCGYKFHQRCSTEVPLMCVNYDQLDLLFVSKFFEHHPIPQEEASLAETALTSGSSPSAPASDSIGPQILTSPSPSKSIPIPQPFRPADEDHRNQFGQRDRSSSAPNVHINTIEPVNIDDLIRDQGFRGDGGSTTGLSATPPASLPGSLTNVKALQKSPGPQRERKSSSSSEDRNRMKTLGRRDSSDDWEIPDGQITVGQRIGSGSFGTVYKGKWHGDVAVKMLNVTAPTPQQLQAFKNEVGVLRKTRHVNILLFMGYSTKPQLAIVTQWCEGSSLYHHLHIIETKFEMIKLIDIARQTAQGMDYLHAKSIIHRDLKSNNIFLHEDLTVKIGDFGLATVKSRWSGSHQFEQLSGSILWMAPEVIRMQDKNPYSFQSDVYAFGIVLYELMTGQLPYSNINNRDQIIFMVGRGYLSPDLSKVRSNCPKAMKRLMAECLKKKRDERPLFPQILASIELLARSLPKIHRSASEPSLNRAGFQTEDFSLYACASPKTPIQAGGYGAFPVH
# Sequence of Casein kinase I isoform delta (P48730 whole entry, canonical isoform): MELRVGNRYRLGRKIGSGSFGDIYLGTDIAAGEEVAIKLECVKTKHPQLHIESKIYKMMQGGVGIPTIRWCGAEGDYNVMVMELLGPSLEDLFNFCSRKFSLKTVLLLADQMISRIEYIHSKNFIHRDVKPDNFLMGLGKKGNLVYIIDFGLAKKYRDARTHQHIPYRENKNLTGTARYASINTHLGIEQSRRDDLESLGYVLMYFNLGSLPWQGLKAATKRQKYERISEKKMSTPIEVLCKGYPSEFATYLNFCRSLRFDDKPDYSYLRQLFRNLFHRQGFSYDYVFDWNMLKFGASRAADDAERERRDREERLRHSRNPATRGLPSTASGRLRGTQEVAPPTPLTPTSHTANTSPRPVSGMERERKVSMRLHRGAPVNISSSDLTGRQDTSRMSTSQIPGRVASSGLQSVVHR
# Sequence of Glycogen synthase kinase-3 beta (P49841 whole entry): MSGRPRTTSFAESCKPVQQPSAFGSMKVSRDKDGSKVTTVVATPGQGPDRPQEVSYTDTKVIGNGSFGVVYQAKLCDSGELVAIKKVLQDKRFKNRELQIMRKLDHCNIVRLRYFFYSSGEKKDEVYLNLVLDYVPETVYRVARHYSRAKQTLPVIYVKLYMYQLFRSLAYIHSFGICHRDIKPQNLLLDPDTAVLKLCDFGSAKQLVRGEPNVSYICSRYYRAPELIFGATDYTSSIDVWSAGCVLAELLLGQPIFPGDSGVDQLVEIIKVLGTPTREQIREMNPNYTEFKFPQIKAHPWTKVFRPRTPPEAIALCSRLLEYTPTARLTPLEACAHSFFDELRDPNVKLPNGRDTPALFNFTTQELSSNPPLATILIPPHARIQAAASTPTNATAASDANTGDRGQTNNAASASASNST
# Sequence of Serine/threonine-protein kinase RAF and Dual specificity mitogen-activated protein kinase kinase 1 (Raf/MEK) (Homo sapiens) (P04049 whole entry, looked up): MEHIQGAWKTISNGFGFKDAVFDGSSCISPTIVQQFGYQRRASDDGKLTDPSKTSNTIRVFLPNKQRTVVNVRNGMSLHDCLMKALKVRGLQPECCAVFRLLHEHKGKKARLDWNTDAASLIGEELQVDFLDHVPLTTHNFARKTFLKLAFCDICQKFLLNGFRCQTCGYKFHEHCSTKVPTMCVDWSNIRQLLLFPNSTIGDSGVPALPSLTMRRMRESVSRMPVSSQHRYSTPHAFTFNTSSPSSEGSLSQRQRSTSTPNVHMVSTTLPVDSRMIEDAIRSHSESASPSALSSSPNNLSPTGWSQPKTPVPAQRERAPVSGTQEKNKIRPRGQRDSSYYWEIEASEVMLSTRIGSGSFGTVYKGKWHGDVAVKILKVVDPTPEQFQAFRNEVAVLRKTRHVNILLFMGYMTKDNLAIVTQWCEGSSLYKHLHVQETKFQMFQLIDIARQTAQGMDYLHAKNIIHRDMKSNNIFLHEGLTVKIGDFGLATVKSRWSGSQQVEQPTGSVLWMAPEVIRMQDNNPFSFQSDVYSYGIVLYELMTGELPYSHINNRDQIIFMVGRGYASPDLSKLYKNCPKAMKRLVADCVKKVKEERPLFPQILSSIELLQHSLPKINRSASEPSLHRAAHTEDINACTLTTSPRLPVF
# Sequence of Serine/threonine-protein kinase RAF and Dual specificity mitogen-activated protein kinase kinase 1 (Raf/MEK) (Homo sapiens) (Q02750 whole entry, looked up): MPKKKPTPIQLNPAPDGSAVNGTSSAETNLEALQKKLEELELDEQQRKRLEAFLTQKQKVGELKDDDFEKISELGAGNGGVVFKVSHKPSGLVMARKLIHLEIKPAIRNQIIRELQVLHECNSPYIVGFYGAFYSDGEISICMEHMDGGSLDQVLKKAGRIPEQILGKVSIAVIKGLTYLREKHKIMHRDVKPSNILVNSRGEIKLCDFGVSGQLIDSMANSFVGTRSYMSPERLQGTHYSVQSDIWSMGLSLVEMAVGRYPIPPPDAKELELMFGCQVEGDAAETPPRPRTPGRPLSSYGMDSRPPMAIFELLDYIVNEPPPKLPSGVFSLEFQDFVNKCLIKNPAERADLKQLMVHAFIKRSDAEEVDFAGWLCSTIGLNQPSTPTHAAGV
# Sequence of Mitogen-activated protein kinase; ERK1/ERK2 (Homo sapiens) (P27361 whole entry, looked up): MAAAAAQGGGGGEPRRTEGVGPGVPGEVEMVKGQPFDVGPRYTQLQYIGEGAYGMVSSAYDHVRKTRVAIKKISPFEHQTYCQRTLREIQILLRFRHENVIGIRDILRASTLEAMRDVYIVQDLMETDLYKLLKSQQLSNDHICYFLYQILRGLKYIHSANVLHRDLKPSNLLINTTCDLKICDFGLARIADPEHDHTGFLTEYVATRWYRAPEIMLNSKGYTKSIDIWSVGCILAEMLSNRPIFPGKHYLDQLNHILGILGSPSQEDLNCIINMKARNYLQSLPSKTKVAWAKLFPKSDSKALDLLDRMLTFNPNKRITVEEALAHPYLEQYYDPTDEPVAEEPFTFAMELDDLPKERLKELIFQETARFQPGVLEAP
# Sequence of Mitogen-activated protein kinase; ERK1/ERK2 (Homo sapiens) (P28482 whole entry, looked up): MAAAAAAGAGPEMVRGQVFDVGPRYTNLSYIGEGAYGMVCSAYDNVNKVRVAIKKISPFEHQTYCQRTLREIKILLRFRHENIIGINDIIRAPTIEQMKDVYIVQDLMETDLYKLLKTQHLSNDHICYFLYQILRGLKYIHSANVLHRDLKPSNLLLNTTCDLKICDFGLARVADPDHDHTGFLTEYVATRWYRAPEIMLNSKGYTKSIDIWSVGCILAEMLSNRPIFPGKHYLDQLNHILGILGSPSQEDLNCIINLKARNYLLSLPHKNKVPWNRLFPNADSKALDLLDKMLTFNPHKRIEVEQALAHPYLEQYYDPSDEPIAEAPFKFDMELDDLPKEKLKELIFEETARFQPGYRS
Compound,pIC50 [1],pIC50 [2],Activity [3],inhibition [4],inhibition [5],inhibition (HUVEC),inhibition [6],pIC50 (HL-60)
CC(=O)Nc1cccc(Nc2ccc(NC(=N)Nc3ccc(Cl)c(C(F)(F)F)c3)cc2)c1,< 4.00,< 4.00,inactive,12%,12%,1%,38%,5.40
N=C(N)Nc1ccc(Cc2cccc(NC(=N)N)c2)cc1,< 4.00,< 4.00,,,,,,4.45
N=C(N)Nc1ccc(C(=O)c2cccc(NC(=N)N)c2)cc1,< 4.00,< 4.00,,,,,,3.85
CNC(=O)c1cc(Oc2ccc(NC(=O)Nc3ccc(Cl)c(C(F)(F)F)c3)cc2)ccn1 [SORAFENIB],,,,,,,,5.77
N=C(N)Nc1cccc(Cc2ccc(NC(=N)Nc3ccc(Cl)c(C(F)(F)F)c3)cc2)c1,< 4.00,< 4.00,inactive,17%,-7%,17%,99%,4.80
N=C(N)Nc1cccc(Oc2ccc(NC(=N)Nc3ccccc3)cc2)c1,< 4.00,< 4.00,,,1%,-1%,4%,< 4.00
c1cc(NC2=NCCN2)cc(Oc2ccc(NC3=NCCN3)cc2)c1,< 4.00,< 4.00,,,,,,< 4.00
N=C(N)Nc1ccc(Oc2ccc(NC(=N)N)cc2)cc1,< 4.00,< 4.00,,6%,-1%,7%,2%,4.05
N=C(N)Nc1ccc(Oc2cccc(NC(=N)N)c2)cc1,< 4.00,< 4.00,,-4%,-1%,-1%,22%,4.44
N=C(N)Nc1cccc(Nc2ccc(NC(=N)Nc3ccccc3)cc2)c1,< 4.00,< 4.00,,,,,,< 4.00
N=C(N)Nc1cccc(Oc2ccc(NC(=N)Nc3ccc(Cl)c(C(F)(F)F)c3)cc2)c1,< 4.00,< 4.00,inactive,-7%,21%,0%,96%,4.61
N=C(N)Nc1cccc(C(=O)c2ccc(NC(=N)Nc3ccccc3)cc2)c1,< 4.00,< 4.00,,,,,,< 4.00
N=C(N)Nc1ccc(Cc2cccc(NC(=N)Nc3ccc(Cl)c(C(F)(F)F)c3)c2)cc1,< 4.00,< 4.00,inactive,,,,,4.78
CC(=O)Nc1cccc(Oc2ccc(NC(=N)Nc3ccc(Cl)c(C(F)(F)F)c3)cc2)c1,< 4.00,< 4.00,inactive,8%,0%,,35%,5.04
N=C(N)Nc1ccc(Nc2cccc(NC(=N)N)c2)cc1,< 4.00,< 4.00,,,4%,-6%,86%,4.17
N=C(N)Nc1cccc(C(=O)c2ccc(NC(=N)Nc3ccc(Cl)c(C(F)(F)F)c3)cc2)c1,< 4.00,< 4.00,inactive,21%,20%,0%,96%,4.65
N=C(N)Nc1ccc(Oc2cccc(NC(=N)Nc3ccccc3)c2)cc1,< 4.00,< 4.00,,,,,,< 4.00
N=C(N)Nc1ccc(Cc2cccc(NC(=N)Nc3ccccc3)c2)cc1,< 4.00,< 4.00,,,,,,< 4.00
N=C(N)Nc1cccc(Cc2ccc(NC(=N)Nc3ccccc3)cc2)c1,< 4.00,< 4.00,,,,,,< 4.00
c1cc(Cc2ccc(NC3=NCCN3)cc2)cc(NC2=NCCN2)c1,< 4.00,< 4.00,,,,,,< 4.00
N=C(N)Nc1cccc(Nc2ccc(NC(=N)Nc3ccc(Cl)c(C(F)(F)F)c3)cc2)c1,< 4.00,< 4.00,inactive,,12%,-3%,74%,4.44
O=C(c1ccc(NC2=NCCN2)cc1)c1cccc(NC2=NCCN2)c1,< 4.00,< 4.00,,,,,,< 4.00
